Assay results taken from US8563717B2, “Adenine derivatives” (GlaxoSmithKline LLC, priority 2008, dated 2013).
pIC50: −log10 of the molar value.

Experiments:
Assay type in all cases: cell-based
[1] = tested on: Interferon-α; test: Induction of Interferon-α using cryopreserved human PBMCs; details: PBMC, 24 h incubation, normalised to 1 uM resiquimod, read-out: mean pEC50 for induction of IFN-α (converted)
In short: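 Cryopreserved healthy-donor PBMCs at 1×10^6 cells/ml in RPMI/10% FCS with 1000 units/ml IFN-gamma, exposed 24 h at 37 °C to 11-point two-fold compound dilutions. Supernatant IFN-α quantified by MSD electrochemiluminescence immunoassay; pEC50 from 4-parameter fit, normalised to 1 uM resiquimod and DMSO.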

[2] = tested on: Interferon-α; test: Induction of Interferon-α using fresh human PBMCs; details: PBMC, 24 hr incubation, relative to 2 μM resiquimod control, read-out: mean pEC50 for induction of IFN-α (converted)
Procedure: (§1) Assay for the Induction of Interferon-α and TNF-α Using Fresh Human Peripheral Blood Mononuclear Cells (PBMCs)
(§2) Compounds were dissolved and serially diluted in DMSO to give 100× the required concentration range using a Biomek 2000. 1 ul of test compound was transferred into 96-well tissue culture plates using a Biomek FX. Each compound was assayed in duplicate for each donor. Each plate contained a dilution series of the TLR7/8 agonist resiquimod as standard and Column 11 contained 1 μl of 200 μM resiquimod (giving a 2 μM final concentration, used to define the approximate maximal response to resiquimod).
(§3) Blood samples from two human donors were collected into sodium heparin (10 U/ml). 25 ml volumes of whole blood were overlaid onto 15 mls Histopaque in Leucosep tubes which were centrifuged at 800 g for 20 min and the band at the plasma/histopaque interface carefully removed. The collected cells were centrifuged at 2500 rpm for 10 min. and the pellet resuspended in 10 ml of media (RPMI 1640 (Low endotoxin) supplemented with 10% v/v foetal calf serum (FCS, low endotoxin) 100 U/ml penicillin G, 100 μg/ml streptomycin, 10 mM L-glutamine and 1× non-essential amino acids). A 1:20 dilution of the cells was prepared using trypan blue & the cells counted using a haemocytometer. The PBMCs were diluted to give a final concentration of 2×10^6/ml and 100 ul of this cells suspension was added to wells containing 1 μl of diluted test compound.
(§4) The cell preparations were incubated for 24 hr. (37° C., 95% air, 5% CO2) after which a sample of the supernatant was removed using the Biomek FX and assayed for both IFN-α and TNF-α using the MSD (Mesoscale Discovery) electrochemiluminescence assay platform. The IFN-α assay was carried out similarly to that described above. The TNF-α assay was carried out as per kit instructions (Cat No K111BHB).
(§5) Cytokine released was expressed as a percentage of the 2 μM resiquimod control (column 11). This percentage was plotted against compound concentration and the pEC50 for the response determined by non-linear least squares curve fitting. For the IFN-α responses generally a 4 parameter logistic model was selected. For the TNF responses where a clear maximum response was obtained (i.e. a well defined plateau in the response was observed) then a 4 parameter model was generally used. If the upper asymptote of the curve wasn't well defined then the curve fitting was generally constrained to a maximal response of 100% (i.e., to the response to 2 μM resiquimod) or to the response of the highest concentration tested if this was greater than the resiquimod response. Some curves were bell shaped for one or both cytokines and the cytokine data on the down slope of the bell shaped response (i.e. concentrations above those giving the maximal response) were generally excluded from the fit, usually with the exception of the concentration immediately above the peak response. Curve fitting thus concentrated on the up slope of the dose response curve.

[3] = tested on: TNF-α; test: Induction of TNF-α using fresh human PBMCs; details: PBMC, 24 hr incubation, relative to 2 μM resiquimod control, read-out: mean pEC50 for induction of TNF-α (converted)
Procedure: as §1, §2, §3, §4, §5

[4] = tested on: IL-5; test: Allergen-driven cytokine assay using fresh human PBMCs from atopic volunteers (IL-5); details: PBMC, PBMCs from at least two allergic donors, 10 μg/ml Timothy grass antigen, compared to the allergen control, read-out: concentration at which ≧50% reduction of IL-5 production observed
Procedure: (§6) Allergen-Driven Cytokine Assay Using Fresh Human Peripheral Blood Mononuclear Cells (PBMCs) from Atopic Volunteers
(§7) An assay based on co-culture of atopic human donor derived peripheral blood mononuclear cells (PBMCs) with allergen and test compounds was developed. After 5-6 days culture, cell supernatants were assayed for a range of cytokines.
(§8) Compounds were dissolved in DMSO, then serially diluted in growth medium (RPMI 1640 medium supplemented with 100 U/ml penicillin G, 100 μg/ml streptomycin, 10 mM L-glutamine) to give 4× the required concentration range in the presence of 0.04% DMSO. Each compound was assayed in triplicate at all concentrations.
(§9) Defibrinated human blood from volunteers known to be allergic to Timothy grass was centrifuged at 2500 rpm for 15 minutes. The upper layer of serum was collected and heat-inactivated at 56° C. for 30 minutes (HI-autologous serum). The lower layer of cells was resuspended in 50 ml PBS (+Ca +Mg), 25 ml diluted blood were overlaid onto 20 ml Lymphoprep in 50 ml tubes then centrifuged at 2500 rpm for 20 minutes at RT. The band at the serum/Lymphoprep interface was carefully removed. The collected cells were washed with PBS and re-suspended at 4×10^6/ml in growth medium with HI-autologous serum. PBMCs were seeded at 0.4×10^6 cells/well in flat-bottomed 96 well plates in the presence of 10 μg/ml Timothy grass antigen (Alk Abello) and test compounds at appropriate concentrations in a total volume of 200 ul.
(§10) Plates were incubated at 37° C. in 5% CO2 for up to 6 days. The cell medium from each well was harvested and stored at −20° C. prior to analysis. Cytokines and chemokines in supernatants were detected using Meso Scale Discovery 10 spot plates for Human TH1/Th2 cytokines.

[5] = tested on: IL-13; test: Allergen-driven cytokine assay using fresh human PBMCs from atopic volunteers (IL-13); details: PBMC, PBMCs from at least two allergic donors, 10 μg/ml Timothy grass antigen, compared to the allergen control, read-out: concentration at which ≧50% reduction of IL-13 production observed
Procedure: as §6, §7, §8, §9, §10

Structure (SMILES)	EC50 [2] [nM]	EC50 [3] [nM]	pIC50 [4]	pIC50 [5]	EC50 [1] [nM]
CCCCOc1nc(N)c2[nH]c(=O)n(CCC3CCCNC3)c2n1 (stereo not shown) [Example 29, 6-amino-2-(butyloxy)-9-[2-(3-piperidinyl)ethyl]-7,9-dihydro-8H-purin-8-one]	< 100	> 1000			< 1580
CCCCOc1nc(N)c2[nH]c(=O)n(CCCC3CCN(C4CCCCC4)CC3)c2n1 [Example 102, 6-Amino-2-(butyloxy)-9-[3-(1-cyclohexyl-4-piperidinyl)propyl]-7,9-dihydro-8H-purin-8-one]	< 10	> 1000			< 1580
CCCCOc1nc(N)c2[nH]c(=O)n(CCCC3CCCCN3CC(C)C)c2n1 (stereo not shown) [Example 18, 6-Amino-2-(butyloxy)-9-{3-[1-(2-methylpropyl)-2-piperidinyl]propyl}-7,9-dihydro-8H-purin-8-one]	< 0.316	> 31.6			< 1580
CCCCOc1nc(N)c2[nH]c(=O)n(CCCCCC3CCNCC3)c2n1 [Example 122, 6-Amino-2-(butyloxy)-9-[5-(4-piperidinyl)pentyl]-7,9-dihydro-8H-purin-8-one]	< 0.316	> 31.6			< 1580
CCCCOc1nc(N)c2[nH]c(=O)n(CCCC3CCN(CCCC)CC3)c2n1 [Example 96, 6-Amino-2-(butyloxy)-9-[3-(1-butyl-4-piperidinyl)propyl]-7,9-dihydro-8H-purin-8-one]	< 1	> 1000			< 1580
CCCCOc1nc(N)c2[nH]c(=O)n(CC3CCCN(C(C)C)C3)c2n1 (stereo not shown) [Example 24, 6-Amino-2-(butyloxy)-9-{[1-(1-methylethyl)-3-piperidinyl]methyl}-7,9-dihydro-8H-purin-8-one]	< 100	> 1000			< 1580
CCCCOc1nc(N)c2[nH]c(=O)n(CCCCC3CCN(CCC)CC3)c2n1 [Example 108, 6-Amino-2-(butyloxy)-9-[4-(1-propyl-4-piperidinyl)butyl]-7,9-dihydro-8H-purin-8-one]	< 1	> 1000			< 1580
CCCCOc1nc(N)c2[nH]c(=O)n(CCC3CCCN(CC)C3)c2n1 (stereo not shown) [Example 30, 6-Amino-2-(butyloxy)-9-[2-(1-ethyl-3-piperidinyl)ethyl]-7,9-dihydro-8H-purin-8-one]	< 10	> 1000			< 1580
CCCCOc1nc(N)c2[nH]c(=O)n(CC3CCCN(CCC)C3)c2n1 (stereo not shown) [Example 23, 6-Amino-2-(butyloxy)-9-[(1-propyl-3-piperidinyl)methyl]-7,9-dihydro-8H-purin-8-one]	< 100	> 1000			< 1580
CCCCOc1nc(N)c2[nH]c(=O)n(CC3CCN(CC)CC3)c2n1 [Example 7]	< 100	> 1000			< 1580

The next lines start with results.

EC50 [2] [nM]	EC50 [3] [nM]	pIC50 [4]	pIC50 [5]	Structure (SMILES)	EC50 [1] [nM]
< 10	> 1000	≥ 8.10	≥ 7.40	CCCCOc1nc(N)c2[nH]c(=O)n(CCCC3CCN(CC)CC3)c2n1 [Example 9]	< 1580
< 10	> 1000			CCCCOc1nc(N)c2[nH]c(=O)n(CCCC3CCN(C(C)C)CC3)c2n1 [Example 95, 6-Amino-2-(butyloxy)-9-{3-[1-(1-methylethyl)-4-piperidinyl]propyl}-7,9-dihydro-8H-purin-8-one]	< 1580
< 100	> 1000	≥ 8.10	≥ 7.40	CCCCOc1nc(N)c2[nH]c(=O)n(CCC3CCN(CC)CC3)c2n1 [Example 8]	< 1580
< 1	> 1000			CCCCOc1nc(N)c2[nH]c(=O)n(CCC3CCCN(C(C)C)C3)c2n1 (stereo not shown) [Example 32, 6-Amino-2-(butyloxy)-9-{2-[1-(1-methylethyl)-3-piperidinyl]ethyl}-7,9-dihydro-8H-purin-8-one]	< 1580
< 100	> 1000			CCCCOc1nc(N)c2[nH]c(=O)n(CCC3CCN(C(C)C)CC3)c2n1 [Example 81, 6-Amino-2-(butyloxy)-9-{2-[1-(1-methylethyl)-4-piperidinyl]ethyl}-7,9-dihydro-8H-purin-8-one]	< 1580
< 0.316	> 31.6			CCC[C@H](C)Oc1nc(N)c2[nH]c(=O)n(CCC3CCCN(C(C)C)C3)c2n1 (stereo partly drawn) [Example 42, 6-Amino-2-{[(1S)-1-methylbutyl]oxy}-9-{2-[1-(1-methylethyl)-3-piperidinyl]ethyl}-7,9-dihydro-8H-purin-8-one]	< 1580
< 0.316	> 31.6			CCC[C@H](C)Oc1nc(N)c2[nH]c(=O)n(CCCC3CCN(C(C)C)CC3)c2n1 [Example 106, 6-Amino-2-{[(1S)-1-methylbutyl]oxy}-9-{3-[1-(1-methylethyl)-4-piperidinyl]propyl}-7,9-dihydro-8H-purin-8-one]	< 1580
< 0.316	> 31.6			CCC[C@H](C)Oc1nc(N)c2[nH]c(=O)n(CCCC3CCNCC3)c2n1 [Example 104, 6-Amino-2-{[(1S)-1-methylbutyl]oxy}-9-[3-(4-piperidinyl)propyl]-7,9-dihydro-8H-purin-8-one]	< 1580
< 10	> 1000			CCCCOc1nc(N)c2[nH]c(=O)n(CCCCCC3CCCN(C(C)C)C3)c2n1 (stereo not shown) [Example 69, 6-Amino-2-(butyloxy)-9-{5-[1-(1-methylethyl)-3-piperidinyl]pentyl}-7,9-dihydro-8H-purin-8-one]	< 1580
< 0.316	> 31.6			CCC[C@H](C)Oc1nc(N)c2[nH]c(=O)n(CCC3CCN(CC)CC3)c2n1 [Example 91, 6-Amino-9-[2-(1-ethyl-4-piperidinyl)ethyl]-2-{[(1S)-1-methylbutyl]oxy}-7,9-dihydro-8H-purin-8-one]	< 1580
< 1	> 1000			CCCCOc1nc(N)c2[nH]c(=O)n(CCCC3CCN(CCC)CC3)c2n1 [Example 94, 6-Amino-2-(butyloxy)-9-[3-(1-propyl-4-piperidinyl)propyl]-7,9-dihydro-8H-purin-8-one]	< 1580
